Source: patent US10800789B2, “Antiviral compounds” (Gilead Pharmasset LLC, priority 2012, dated 2020)
Read-outs that look alike come from different tables or passages of the source.

Experiments:
[1] = system: stable HCV 2a JFH-1 Rluc replicon cells (L31 present in NS5A); assay: Renilla luciferase HCV replicon reporter assay, genotype 2a JFH-1; assay type: cell-based
Outline: (§1)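 Cells carrying the stable or transiently transfected (Huh-Lunet) dicistronic RLuc replicons received 3-fold serial compound dilutions from 10 mM DMSO stocks. After 72 h, cells were lysed and Renilla luciferase read. DMSO served as the no-inhibition control and ITMN-191 above 100×EC50 as the positive control; EC50 by non-linear regression.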

[2] = IV and PO single dose pharmacokinetic studies in SD rats; assay type: in vivo, male Sprague-Dawley (SD) rats; conditions: male SD rats, PO 2 mg/kg vs IV infusion 1 mg/kg; for bioavailability: Sprague-Dawley, rat, plasma, read-out: Rat % F
Outline: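 Fasted male Sprague-Dawley rats (250-300g, n=3/group) were given 1 mg/kg IV as a 30-min jugular infusion (5% ethanol/35% PEG 400/water pH 2.0) or 2 mg/kg by oral gavage (5% ethanol/55% PEG 400/citrate pH 2.2). Plasma was sampled to 24 h and analysed by LC/MS/MS. Non-compartmental parameters were derived, and %F was calculated from the oral/IV AUC ratio.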

[3] = system: stable HCV 1b RLuc replicon cells (dicistronic genotype 1b Con1 replicon); assay: Renilla luciferase HCV replicon reporter assay, genotype 1b; assay type: cell-based; conditions: stable 1b Con1 RLuc replicon cells, 72 hours, read-out: 1b
Outline: as §1

[4] = system: NS5A chimeric genotype 1b Con1 replicon with genotype 4a ED43 strain NS5A gene; assay: Replicon assay, genotype 4a NS5A chimera; assay type: cell-based, HCV
[5] = system: stable HCV 1a RLuc replicon cells (dicistronic genotype 1a H77 replicon); assay: Renilla luciferase HCV replicon reporter assay, genotype 1a; assay type: cell-based; conditions: stable 1a H77 RLuc replicon cells
Outline: as §1

[6] = system: NS5A chimeric genotype 2a JFH-1 replicon with genotype 2b MD2b-1 strain NS5A gene (M31 present); assay: Replicon assay, genotype 2b NS5A chimera; assay type: cell-based, HCV
Outline: as §1

[7] = system: NS5A chimeric genotype 2a JFH-1 replicon with genotype 2a J6 strain NS5A gene (M31 present); assay: Replicon assay, genotype 2a J6 NS5A chimera; assay type: cell-based, HCV
Outline: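 Antiviral EC50 was determined in HCV replicon cells (stable RLuc lines for 1a H77, 1b Con1, 2a JFH-1 with NS5A L31; J6 NS5A chimera with M31) treated 72 h with compound. Renilla luciferase was then quantified.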

[8] = system: Q30R in genotype 1a NS5A (1a Pi-Rluc replicon, Huh-7-derived cured-51 cells); assay: Replicon assay against resistance mutant 1a Q30R; assay type: cell-based, HCV
Outline: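 Q30R introduced by site-directed mutagenesis into the 1a Pi-RLuc replicon; replicon RNA transiently transfected into cured-51 cells. Cells treated with 3-fold serially diluted compound for 72 h, then lysed and Renilla luciferase measured; EC50 by non-linear regression.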

[9] = system: NS5A chimeric genotype 1b Con1 replicon with genotype 3a S52 strain NS5A gene; assay: Replicon assay, genotype 3a NS5A chimera; assay type: cell-based, HCV
[10] = Hepatitis C virus, read-out: 2a JFH (nM), genotype 2a JFH-1 replicon (L31 in NS5A), stable cells
[11] = Hepatitis C virus, read-out: 2a JFH, stable 2a JFH-1 Rluc replicon cells, L31 in NS5A, activity range
[12] = Hepatitis C virus, read-out: 4a (s) (nM), genotype 4a NS5A chimeric replicon, stable replicon cells (s)
[13] = Hepatitis C virus, read-out: 4a (s), (s), activity range
[14] = Hepatitis C virus, 72 h, activity range
[15] = Hepatitis C virus, 2BS, read-out: 2b (s), stably replicating replicon cells (s), activity range
[16] = Hepatitis C virus, read-out: 2b (s) (nM), genotype 2b MD2b-1 NS5A chimeric replicon (M31), stably replicating replicon cells (s)
[17] = Hepatitis C virus, read-out: 2b (t) (nM), genotype 2b MD2b-1 NS5A chimeric replicon (M31), transiently transfected (t)
[18] = Hepatitis C virus, read-out: 2b (t), transiently transfected (t) into Huh-Lunet cells, activity range
[19] = Hepatitis C virus, read-out: 2a J6 (t) (nM), genotype 2a J6 NS5A chimeric replicon (M31), transiently transfected (t) into Huh-Lunet cells
[20] = Hepatitis C virus, read-out: 2a J6 (t), transiently transfected (t) into Huh-Lunet cells, activity range
[21] = Hepatitis C virus, read-out: 1a Q30R
[22] = Hepatitis C virus, read-out: 1a Q30R (nM)
[23] = Hepatitis C virus, read-out: 3a (s) (nM), genotype 3a NS5A chimeric replicon, stable replicon cells (s)
[24] = Hepatitis C virus, read-out: 3a (s), (s), activity range

Structure (SMILES)	EC50 [1, 10] [nM]	EC50 [1, 11] [nM]	bioavailability [2] [%]	EC50 ([3]; Hepatitis C virus, 72 h) [nM]	EC50 [4, 12] [nM]	EC50 [4, 13] [nM]	EC50 ([5]; Hepatitis C virus, 72 h) [nM]	EC50 [5, 14] [nM]	EC50 [6, 15] [nM]	EC50 [6, 16] [nM]	EC50 [6, 17] [nM]	EC50 [6, 18] [nM]	EC50 [7, 19] [nM]	EC50 [7, 20] [nM]	EC50 [8, 21] [nM]	EC50 [8, 22] [nM]	EC50 [9, 23] [nM]	EC50 [9, 24] [nM]	further results
COC(=O)N[C@H](C(=O)N1[C@@H](C)CC[C@H]1c1ncc(-c2ccc3c(c2)COc2cc4c(ccc5nc([C@@H]6C[C@@H]7CCC[C@@H]7N6C(=O)[C@@H](NC(=O)OC)C6CCOCC6)[nH]c54)cc2-3)[nH]1)C(C)C [IA]	0.021	< 0.1	21.8	0.024	0.019	< 0.1	0.015	< 0.1	< 0.1	0.062	0.033	< 0.1	0.024	< 0.1	< 0.1	0.024	0.052	< 0.1	EC50 ([9]; Hepatitis C virus, read-out: 3a (t) (nM), genotype 3a NS5A chimeric replicon, transiently transfected (t)): 0.055 nM; EC50 ([9]; Hepatitis C virus, read-out: 3a (t), transiently transfected (t) into Huh-Lunet cells, activity range): < 0.1 nM
COC(=O)N[C@H](C(=O)N1[C@@H](C)CC[C@H]1c1ncc(-c2ccc3c(c2)COc2cc4c(ccc5nc([C@@H]6CC[C@H](C)N6C(=O)[C@@H](NC(=O)OC)[C@@H](C)OC)[nH]c54)cc2-3)[nH]1)C(C)C [DX, Methyl {(2S)-1-[(2S,4S)-2-(5-{2-[(2S,5S)-1-{(2S,3R)-3-methoxy-2-[(methoxycarbonyl)amino]butanoyl}-5-methylpyrrolidin-2-yl]-1,11-dihydroisochromeno[4′,3′:6,7]naphtho[1,2-d]imidazol-9-yl}-1H-imidazol-2-yl)-5-methylpyrrolidin-1-yl]-3-methyl-1-oxobutan-2-yl}carbamate]	–	–	–	–	–	–	–	–	–	–	–	–	–	–	–	–	–	–	EC50 ([1]; genotype 2a JFH-1 replicon (L31 in NS5A), stable cells, read-out: 2a JFH): 0.019 nM; EC50 ([1]; stable 2a JFH-1 Rluc replicon cells, L31 in NS5A, activity range, read-out: 2a JFH): < 0.1 nM; Rat % F ([2]; oral bioavailability): 21.3%; EC50 [3]: 0.031 nM; EC50 ([4]; (s), activity range, read-out: 4a (s)): < 0.1 nM; EC50 ([4]; genotype 4a NS5A chimeric replicon, stable replicon cells (s), read-out: 4a (s)): 0.018 nM; EC50 ([5]; 72 hours): 0.021 nM; EC50 ([5]; 72 hours, activity range): < 0.1 nM; EC50 ([6]; genotype 2b MD2b-1 NS5A chimeric replicon (M31), stably replicating replicon cells (s), read-out: 2b (s)): 0.201 nM; EC50 ([6]; genotype 2b MD2b-1 NS5A chimeric replicon (M31), transiently transfected (t), read-out: 2b (t)): 0.06 nM; EC50 ([6]; stably replicating replicon cells (s), activity range, read-out: 2b (s)): 0.1 to 0.999 nM; EC50 ([6]; transiently transfected (t) into Huh-Lunet cells, activity range, read-out: 2b (t)): < 0.1 nM; EC50 ([7]; genotype 2a J6 NS5A chimeric replicon (M31), transiently transfected (t) into Huh-Lunet cells, read-out: 2a J6 (t)): 0.109 nM; EC50 ([7]; transiently transfected (t) into Huh-Lunet cells, activity range, read-out: 2a J6 (t)): 0.1 to 0.999 nM; EC50 ([8]; Q30R mutant replicon transiently transfected into Huh-7-derived cured-51 cells, activity range, read-out: 1a Q30R): 0.1 to 0.999 nM; EC50 ([8]; Q30R mutant replicon transiently transfected into Huh-7-derived cured-51 cells, read-out: 1a Q30R): 0.138 nM; EC50 ([9]; (s), activity range, read-out: 3a (s)): < 0.1 nM; EC50 ([9]; genotype 3a NS5A chimeric replicon, stable replicon cells (s), read-out: 3a (s)): 0.048 nM
COC(=O)N[C@H](C(=O)N1[C@@H](C)CC[C@H]1c1ncc(-c2ccc3c(c2)COc2cc4c(ccc5nc([C@@H]6C[C@H](COC(F)F)CN6C(=O)[C@@H](NC(=O)OC)[C@@H](C)OC)[nH]c54)cc2-3)[nH]1)C(C)C [FO]	0.008	< 0.1	17.2	0.009	0.007	< 0.1	0.01	< 0.1	0.1 to 0.999	0.164	–	–	–	–	0.1 to 0.999	0.112	0.055	< 0.1	–
COC[C@H]1C[C@@H](c2nc(C3CC3)c(-c3ccc4c(c3)COc3cc5c(ccc6nc([C@@H]7CC[C@H](C)N7C(=O)[C@@H](NC(=O)OC)C(C)C)[nH]c65)cc3-4)[nH]2)N(C(=O)[C@H](NC(=O)OC)c2ccccc2)C1 [FZ, Methyl {(1R)-2-[(2S,4S)-2-(4-cyclopropyl-5-{2-[(2S,5S)-1-{(2S)-2-[(methoxycarbonyl)amino]-3-methylbutanoyl}-5-methylpyrrolidin-2-yl]-1,11-dihydroisochromeno[4′,3′:6,7]naphtho[1,2-d]imidazol-9-yl}-1H-imidazol-2-yl)-4-(methoxymethyl)pyrrolidin-1-yl]-2-oxo-1-phenylethyl}carbamate]	–	< 0.1	18.5	0.031	0.025	< 0.1	0.019	< 0.1	–	–	–	–	–	–	< 0.1	0.048	–	–	EC50 ([1]; read-out: 2a JFH, genotype 2a JFH-1 replicon (L31 in NS5A), stable cells): 0.025 nM; EC50 ([6]; read-out: 2b (s), genotype 2b MD2b-1 NS5A chimeric replicon (M31), stably replicating replicon cells (s)): 0.101 nM; EC50 ([6]; read-out: 2b (s), stably replicating replicon cells (s), activity range): 0.1 to 0.999 nM; EC50 ([7]; read-out: 2a J6 (t), genotype 2a J6 NS5A chimeric replicon (M31), transiently transfected (t) into Huh-Lunet cells): 0.041 nM; EC50 ([7]; read-out: 2a J6 (t), transiently transfected (t) into Huh-Lunet cells, activity range): < 0.1 nM; EC50 ([9]; read-out: 3a (s), (s), activity range): < 0.1 nM; EC50 ([9]; read-out: 3a (s), genotype 3a NS5A chimeric replicon, stable replicon cells (s)): 0.098 nM
COC(=O)N[C@H](C(=O)N1[C@@H](C)CC[C@H]1c1ncc(-c2ccc3c(c2)COc2cc4c(ccc5nc([C@@H]6CC[C@H](C)N6C(=O)[C@@H](NC(=O)OC)[C@@H](C)OC)[nH]c54)cc2-3)[nH]1)C(C)C [FA, Methyl [(2S)-1-{(2S,5S)-2-[5-(2-{(2S,5S)-1-[N-(methoxycarbonyl)-O-methyl-L-threonyl]-5-methylpyrrolidin-2-yl}-1,11-dihydroisochromeno[4′,3′:6,7]naphtho[1,2-d]imidazol-9-yl)-1H-imidazol-2-yl]-5-methylpyrrolidin-1-yl}-3-methyl-1-oxobutan-2-yl]carbamate]	0.014	< 0.1	13.5	0.014	0.011	< 0.1	0.011	< 0.1	0.1 to 0.999	0.13	0.036	< 0.1	0.033	< 0.1	< 0.1	0.046	0.034	< 0.1	–
CC[C@H](C)[C@H](NC(=O)OC)C(=O)N1[C@H](c2ncc(-c3ccc4c(c3)COc3cc5c(ccc6nc([C@@H]7CC[C@H](C)N7C(=O)[C@@H](NC(=O)OC)C7CCOCC7)[nH]c65)cc3-4)[nH]2)C[C@@H]2CCC[C@@H]21 [IL]	0.019	< 0.1	40.9	0.034	0.04	< 0.1	0.028	< 0.1	0.1 to 0.999	0.143	0.025	–	–	–	< 0.1	–	0.083	< 0.1	–
